Results as given in patent US20170334899A1, “AMINO-SUBSTITUTED ISOTHIAZOLES” (Bayer Pharma Aktiengesellschaft, priority 2014, published 2017).

Experiments:
[1] = target: T1, catalytic domain of human Bub1 (amino acids 704-1085) (Homo sapiens, UniProt O43683); test: Bub1 kinase assay (TR-FRET); format: biochemical; conditions: 10 μM ATP, avg, read-out: Bub1 avg (IC50 [mol/l])
T1 construct: catalytic domain of human Bub1 (amino acids 704-1085); His6 (N); made in house; host or cells: insect cells (Hi5)
Summary of the method: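 Readout is the 665/620 nm TR-FRET ratio from anti-phosphoserine antibody, Eu-labelled anti-mouse IgG and streptavidin-XL665, scaled between no-enzyme and uninhibited controls. Reaction: 1 μM biotinylated peptide, 10 μM ATP, 60 min, 22 °C, after 15 min compound preincubation with His6-Bub1 (704-1085, insect-expressed, ~200 ng/ml).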

[2] = target: T2, CDK2/CycE (Homo sapiens, UniProt P24941); test: CDK2/CycE kinase assay (TR-FRET); format: biochemical; conditions: avg, read-out: CDK2 avg (IC50 [mol/l])
T2 construct: GST; purchased ProQinase GmbH (Freiburg, Germany); host or cells: insect cells (Sf9)
Summary of the method: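 Read-out is a TR-FRET 665/620 nm emission ratio from EDTA-stopped reactions detected with anti-pRB(pSer807/pSer811), Eu-labelled anti-mouse IgG and streptavidin-XL665, scaled between no-enzyme and uninhibited wells. Reaction: Sf9-expressed GST-CDK2/GST-CycE, 15 min compound preincubation, 10 μM ATP, 0.75 μM biotin-peptide, 25 min, 22° C., pH 8.0 Tris buffer.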

T1 sequence (O43683 704-1085): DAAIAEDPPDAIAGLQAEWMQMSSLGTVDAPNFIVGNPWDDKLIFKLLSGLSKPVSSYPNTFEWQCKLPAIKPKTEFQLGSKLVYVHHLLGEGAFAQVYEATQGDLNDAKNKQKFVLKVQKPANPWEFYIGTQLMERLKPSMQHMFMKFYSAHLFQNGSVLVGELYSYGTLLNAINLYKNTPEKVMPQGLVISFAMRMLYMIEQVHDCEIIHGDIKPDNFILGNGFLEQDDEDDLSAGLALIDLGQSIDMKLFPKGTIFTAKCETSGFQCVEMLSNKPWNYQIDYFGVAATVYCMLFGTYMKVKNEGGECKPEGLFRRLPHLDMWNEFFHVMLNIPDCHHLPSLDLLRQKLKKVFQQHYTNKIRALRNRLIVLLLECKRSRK

| Compound | IC50 [1] [µM] | IC50 [2] [µM] |
| --- | --- | --- |
| Cc1nsc(Nc2cnc3cc(F)ccc3n2)c1C(=O)Nc1ccc(S(N)(=O)=O)cc1 [Example 149, 5-[(6-fluoroquinoxalin-2-yl)amino]-3-methyl-N-(4-sulfamoylphenyl)-1,2-thiazole-4-carboxamide] | > 20 | > 20 |
| Cc1nsc(Nc2cnc3ccccc3n2)c1C(=O)Nc1cccc(-c2nnc(C(C)(C)C)o2)c1 [Example 107, N-[3-(5-tert-Butyl-1,3,4-oxadiazol-2-yl)phenyl]-3-methyl-5-(quinoxalin-2-ylamino)-1,2-thiazole-4-carboxamide] | ≥ 20 | ≥ 20 |
| Cc1nsc(Nc2cnc(C(F)(F)F)cn2)c1C(=O)Nc1ccc(OC2CCNCC2)nc1 [Example 6, 3-Methyl-N-[6-(piperidin-4-yloxy)pyridin-3-yl]-5-{[5-(trifluoromethyl)pyrazin-2-yl]amino}-1,2-thiazole-4-carboxamide] | ≥ 20 | ≥ 20 |
| Cc1nsc(Nc2cnc3ccccc3n2)c1C(=O)Nc1cccc(C(=O)N2CCN(C)CC2)c1 [Example 102, 3-Methyl-N-{3-[(4-methylpiperazin-1-yl)carbonyl]phenyl}-5-(quinoxalin-2-ylamino)-1,2-thiazole-4-carboxamide] | 19 | ≥ 20 |
| Cc1nsc(Nc2cnc3ccccc3n2)c1C(=O)Nc1ccc(Oc2cccc(C(F)(F)F)c2)nc1 [Example 117, 3-Methyl-5-(quinoxalin-2-ylamino)-N-{6-[3-(trifluoromethyl)phenoxy]pyridin-3-yl}-1,2-thiazole-4-carboxamide] | ≥ 20 | ≥ 20 |
| Cc1nsc(Nc2cnc(C(F)(F)F)cn2)c1C(=O)Nc1ccc(OCC2CCN(CCC(F)(F)F)C2)nc1 (stereo not shown) [Example 124, 3-methyl-5-{[5-(trifluoromethyl)pyrazin-2-yl]amino}-N-(6-{[1-(3,3,3-trifluoropropyl)pyrrolidin-3-yl]methoxy}pyridin-3-yl)-1,2-thiazole-4-carboxamide] | ≥ 20 | ≥ 20 |
| Cc1nsc(Nc2cnc3ccccc3n2)c1C(=O)Nc1cccc(C(=O)N2CCCC2)c1 [Example 113, 3-Methyl-N-[3-(pyrrolidin-1-ylcarbonyl)phenyl]-5-(quinoxalin-2-ylamino)-1,2-thiazole-4-carboxamide] | 18 | ≥ 20 |
| Cc1nsc(Nc2cnc3ccccc3n2)c1C(=O)Nc1cccc(-c2nc(C(C)(C)C)no2)c1 [Example 108, N-[3-(3-tert-Butyl-1,2,4-oxadiazol-5-yl)phenyl]-3-methyl-5-(quinoxalin-2-ylamino)-1,2-thiazole-4-carboxamide] | ≥ 20 | ≥ 20 |
| Cc1nsc(Nc2cnc3ccccc3n2)c1C(=O)Nc1cccc(C(=O)NCC(=O)O)c1 [Example 99, N-[3-({[3-Methyl-5-(quinoxalin-2-ylamino)-1,2-thiazol-4-yl]carbonyl}amino)benzoy]-glycine] | 2.7 | ≥ 20 |

The remaining lines, values ahead:

| IC50 [1] [µM] | IC50 [2] [µM] | Compound |
| --- | --- | --- |
| > 20 | > 20 | Cc1nsc(Nc2cncc(C(F)(F)F)n2)c1C(=O)Nc1ccc(F)c(OC2CCN(C(=O)OC(C)(C)C)CC2)c1 [Example 168, tert-butyl 4-(2-fluoro-5-{[(3-methyl-5-{[6-(trifluoromethyl)pyrazin-2-yl]amino}-1,2-thiazol-4-yl)carbonyl]amino}phenoxy)piperidine-1-carboxylate] |
| > 20 | > 20 | Cc1nsc(Nc2cnc(C(F)(F)F)cn2)c1C(=O)Nc1ccc(OC2CCN(CCF)CC2)c(F)c1 [Example 162, N-(3-fluoro-4-{[1-(2-fluoroethyl)piperidin-4-yl]oxy}phenyl)-3-methyl-5-{[5-(trifluoromethyl)pyrazin-2-yl]amino}-1,2-thiazole-4-carboxamide] |
| > 20 | > 20 | Cc1nsc(Nc2cnc(C(F)(F)F)cn2)c1C(=O)Nc1ccc(OC2CCN(CC(F)(F)F)CC2)c(F)c1 [Example 163, N-(3-fluoro-4-{[1-(2,2,2-trifluoroethyl)piperidin-4-yl]oxy}phenyl)-3-methyl-5-{[5-(trifluoromethyl)pyrazin-2-yl]amino}-1,2-thiazole-4-carboxamide] |
| > 20 | > 20 | Cc1nsc(Nc2ccc(C#N)cn2)c1C(=O)Nc1cccc(S(C)(=O)=O)c1 [Example 150, 5-[(5-cyanopyridin-2-yl)amino]-3-methyl-N-[3-(methylsulfonyl)phenyl]-1,2-thiazole-4-carboxamide] |
| ≥ 20 | ≥ 20 | Cc1nsc(Nc2cnc(C(F)(F)F)cn2)c1C(=O)Nc1ccc(F)c(OCC2CCCN(CC(F)F)C2)c1 (stereo not shown) [Example 335, N-(3-{[1-(2,2-difluoroethyl)piperidin-3-yl]methoxy}-4-fluorophenyl)-3-methyl-5-{[5-(trifluoromethyl)pyrazin-2-yl]amino}-1,2-thiazole-4-carboxamide] |
